Reference: ChEMBL document CHEMBL4483862, “Open-source discovery of chemical leads for next-generation chemoprotective antimalarials” (2018)

System: Plasmodium berghei
Test: Luciferase/luciferin-expressing antifolate-resistant parasites were used to infect a culture of HepG2 cells that were pre-incubated with compounds. Infected hepatocytes emit light due to the luciferase reaction. Assay results are presented as the percent inhibition of light emission compared to control. […]
Format: functional
Conditions: sporozoite; for IC50: read-out: LUCIFERASE INFECTION ASSAY - IC50; for IC90: read-out: LUCIFERASE INFECTION ASSAY - IC90

Compound | IC50 | IC90
CCN1CCN(c2ccc(S(=O)(=O)N3CCCCC3)cc2NC(=O)COc2ccc(Cl)c(C)c2)CC1 | 9.01 µM | > 10 µM
CCN(CC(=O)Nc1ccccc1C(F)(F)F)C(=O)Cn1c(=O)cnc2ccccc21 | > 10 µM | > 10 µM
Cc1cccn2c(=O)cc(CSc3cc(C(=O)NC4CC4)c4ccccc4n3)nc12 | > 10 µM | > 10 µM
CCCCOc1ccc(C(=O)NCC(=O)N2CCN(C/C=C/c3ccccc3)CC2)cc1 | 5.03 µM | 7.33 µM
COc1ccccc1NC(=O)C(=Cc1ccc(N2CCCC2)c([N+](=O)[O-])c1)C(=O)Nc1ccccc1OC | > 10 µM | > 10 µM
O=C(CC12CC3CC(CC(C3)C1)C2)NCC(=O)Nc1ccc2[nH]c(=O)[nH]c2c1 | > 10 µM | > 10 µM
CC(=O)N1CCc2cc(C(=O)C(C)OC(=O)/C(=C/c3ccc(F)cc3)c3cccs3)ccc21 (centres undefined) | 7.08 µM | > 10 µM
O=C(Cn1cccc(C(F)(F)F)c1=O)NC(Cc1ccccc1)c1ccccc1 (centres undefined) | > 10 µM | > 10 µM
COC(=O)/C(O)=C/C(=O)c1c(C)[nH]c(C(=O)OC)c1C | > 10 µM | > 10 µM
CC(C)(C)C1CCC2(CC1)NC(=O)N(CC(=O)OCC(=O)N1CCN(Cc3ccccc3)C1=O)C2=O (centres undefined) | > 10 µM | > 10 µM
O=C(CN1C(=O)c2cccc([N+](=O)[O-])c2C1=O)OCC(=O)N1CCC(Cc2ccccc2)CC1 | > 10 µM | > 10 µM
CC(=O)c1csc(NC(=O)c2ccc(CSc3ccccc3)o2)n1 | > 10 µM | > 10 µM
O=C(Cc1cccc2ccccc12)NCC(=O)Nc1nc(-c2ccccc2)cs1 | > 10 µM | > 10 µM
CCOC(=O)c1c(C)[nH]c(C(=O)OCC(=O)NC23CC4CC(CC(C4)C2)C3)c1C | > 10 µM | > 10 µM
CC(=O)Nc1ccc(/C=C2\S/C(=N\c3cccc4ccccc34)N(Cc3ccccc3F)C2=O)cc1 | 6.52 µM | > 10 µM
Cc1cc(C)cc(-n2c(SCc3nc4ccccc4n3C(F)F)nc3ccccc3c2=O)c1 | > 10 µM | > 10 µM
O=C(NCc1ccc(Cn2cccn2)cc1)N1CCN(c2ccc(C(F)(F)F)cc2[N+](=O)[O-])CC1 | > 10 µM | > 10 µM
O=C(CN1CCN(C(c2ccc(F)cc2)c2ccc(F)cc2)CC1)Nc1nnc(-c2ccccc2)o1 | 1.23 µM | 1.43 µM
O=C(CCc1c[nH]c2ccccc12)Nc1ccc(N2CCc3sccc3C2)nc1 | 8.67 µM | > 10 µM

Compound | IC50 | IC90
COCCOc1ccc(C(F)(F)F)cc1NC(=O)COc1ccc2ccc(=O)oc2c1 | > 10 µM | > 10 µM
CCCCN(C)S(=O)(=O)c1ccc(NC(=O)c2ccc3nccnc3c2)cc1 | > 10 µM | > 10 µM
Cc1cc(N(CCC#N)C(=O)Cn2ncc(Cl)c(Cl)c2=O)ccc1Cl | 5.68 µM | 5.85 µM
CN1CCN(c2ccc(Cl)cc2NC(=O)CCc2nc3ccccc3s2)CC1 | > 10 µM | > 10 µM
Cc1cc(=O)oc2cc(NCC(=O)Nc3cc4c(cc3Cl)OCCO4)ccc12 | > 10 µM | > 10 µM
CCOC(=O)c1c(NC(=O)CSc2nnc(N)[nH]2)sc(Br)c1-c1ccccc1 | 6.28 µM | > 10 µM
O=S(=O)(NCc1nnc2n1-c1ccccc1CC2)c1ccc(C2CCCCC2)cc1 | > 10 µM | > 10 µM
CCCC1C/C(=C/c2ccc(C(=O)NC)cc2)C(=O)/C(=C/c2ccc(C(=O)NC)cc2)C1 (centres undefined) | 3.29 µM | 3.86 µM
Cc1cc(=O)n2nc(C(F)(F)F)n(CC(=O)Nc3ccc(Sc4ccc(C)c(C)c4)cc3)c2c1 | > 10 µM | > 10 µM
Cc1ccc(CN(C)C(=O)NNC(=O)c2ccccc2)c(C)c1 | > 10 µM | > 10 µM
COc1cc(/C=C/C(=O)Nc2nc3c(s2)CC(C)CC3)cc(OC)c1 (centres undefined) | > 10 µM | > 10 µM
O=C(Nc1cccc([N+](=O)[O-])c1)NC1CCSc2ccc(F)cc21 (centres undefined) | 3.86 µM | 4.49 µM
CC(C)CN(C(=O)COC(=O)/C=C/c1nc2ccccc2s1)c1c(N)n(Cc2ccccc2)c(=O)[nH]c1=O | 3.46 µM | 3.98 µM
CCN(Cc1ccc2c(c1)OCCO2)C(=O)C1CCN(c2ncnc3sc(C)c(C)c23)CC1 | > 10 µM | > 10 µM
N#C/C(=C\c1ccc2c(c1)OCCO2)c1ccc(C(F)(F)F)cn1 | > 10 µM | > 10 µM
CC(=O)N(c1nc(/C=C/C(=O)c2ccc(F)c(Br)c2)cs1)c1ccc(F)cc1F | > 10 µM | > 10 µM
Cc1nc(C(C)(C)C)nc2sc(C(=O)NNC(=O)c3ccccn3)c(C)c12 | 8.36 µM | > 10 µM
CC(=O)N1CCc2cc(NC(=O)Cn3c(COc4ccc5ccccc5c4)nc4ccccc43)ccc21 | > 10 µM | > 10 µM
Cc1ccc(-c2noc(CCCN3CCN(C(=O)Cn4cnc5c(C)cccc5c4=O)CC3)n2)cc1 | > 10 µM | > 10 µM

Compound | IC50 | IC90
CCN1CCN(c2ccc(NC(=O)CSc3nc4ccccc4s3)c(C)c2)CC1 | > 10 µM | > 10 µM
CN(C)S(=O)(=O)c1ccc(NC(=O)COc2ccc(Oc3ccc(C(F)(F)F)cn3)cc2)cc1 | > 10 µM | > 10 µM
CCOc1ccc(-c2nc(CSC(C)C(=O)Nc3c(Cl)cccc3Cl)cs2)cc1 (centres undefined) | > 10 µM | > 10 µM
CCOc1ccc(N2C(=O)c3ccccc3C(C=NNc3ccc(S(=O)(=O)N(CC)CC)cc3[N+](=O)[O-])C2=O)cc1 (centres undefined) | > 10 µM | > 10 µM
COc1ccc(CN(CC(=O)NCCc2ccc(F)cc2)C(C)Cc2cccs2)cc1 (centres undefined) | > 10 µM | > 10 µM
CC(=O)N1C=Cc2ccccc2C1CC(=O)Nc1ccc(Cl)c(S(=O)(=O)N2CCCC2)c1 (centres undefined) | > 10 µM | > 10 µM
Cc1ccc(S(=O)(=O)N(C)CC(=O)N(C)Cc2ccccc2OC(F)(F)F)cc1C | > 10 µM | > 10 µM
COc1ccc(S(=O)(=O)N2CCN(C(=O)c3sc4nc5n(c(=O)c4c3C)CCCCC5)CC2)cc1 | > 10 µM | > 10 µM
O=C(Nc1nc(-c2ccc(Cl)cc2Cl)cs1)C1CCN(c2ccc(Cl)nn2)CC1 | > 10 µM | > 10 µM
CCN(c1ccccc1)S(=O)(=O)c1ccc(NNC(=O)Nc2cccc3ccccc23)nc1 | 8.75 µM | > 10 µM
CCOCCCn1c(SCc2nc(-c3cccs3)oc2C)nc2sc(C)c(C)c2c1=O | > 10 µM | > 10 µM
COC(=O)/C=C/c1ccc(OCC(O)COc2ccc(C(C)(C)C)cc2)c(OC)c1 (centres undefined) | > 10 µM | > 10 µM
N#Cc1cccc(/C=C/C(=O)c2ccc(S(=O)(=O)N3CCCC3)cc2)c1 | > 10 µM | > 10 µM
Cc1ccc(S(=O)(=O)Nc2cccc(C(=O)NN(C)c3ccccc3)c2)cc1F | > 10 µM | > 10 µM
O=C(Nc1ccc(-c2nc(-c3ccc(O)c(O)c3)cs2)cc1)c1cccs1 | > 10 µM | > 10 µM
CCCn1c(N)c(C(=O)CSc2nnc(-c3ccccc3)c(-c3ccccc3)n2)c(=O)n(C)c1=O | > 10 µM | > 10 µM
CC1CN(S(=O)(=O)NCC(c2ccccc2Cl)c2c[nH]c3ccccc23)CC(C)O1 (centres undefined) | > 10 µM | > 10 µM
C=CCN(C(=O)C1CCN(S(=O)(=O)c2cccs2)CC1)c1nc2c(s1)CCCC2 | > 10 µM | > 10 µM
CC(=O)Nc1cccc(C(=O)/C=C/c2cn(-c3ccccc3)nc2-c2ccncc2)c1 | > 10 µM | > 10 µM
